One may read the Ki as a dissociation constant, usually derived from enzyme kinetics or from competition with a known ligand.

Our source for the Ki and EC50 values is patent US9994581B2, “Bromodomain inhibitors” (AbbVie Inc., priority 2013, dated 2018).

Bounds are passed on as bounds.

The target in one assay is BRD4 (BDI-BDII_K57-K550) (Homo sapiens, UniProt O60885). Kind of assay: TR-FRET bromodomain binding assay. The conditions noted are these: His-tagged tandem bromodomain, Alexa647-labeled probe; Ki calculated from IC50s, probe Kd and probe concentration. Here is the method: A time-resolved fluorescence resonance energy transfer (TR-FRET) assay was used to determine the affinities of compounds of the Examples listed in Table 1 for the tandem domain of bromodomain BRD4. […] An Alexa647-labeled BET-inhibitor was used as the fluorescent probe in the assay.
TR-FRET data were normalized to the means of 24 no-compound controls (“high”) and 8 controls containing 1 μM un-labeled probe (“low”). Percent inhibition was plotted as a function of compound concentration and the data were fit with the 4 parameter logistic equation to obtain IC50s. Inhibition constants (Ki) were calculated from the IC50s, probe Kd and probe concentration. Typical Z′ values were between 0.65 and 0.75.

Assay [1] relates to breast cancer cell line MX-1. Nature of the assay: MX-1 cell line proliferation assay (3-day, Cell Titer Glo). It counts as cell-based. The note with it: Homo sapiens, MX1, MX-1 cells, 72 hours, read-out: Cellular proliferation: EC50. Here is the method: The impact of compounds of the Examples on cancer cell proliferation was determined using the breast cancer cell line MX-1 (ATCC) in a 3-day proliferation assay and the data are reported in Table 1. […] For compound testing, MX-1 cells were plated in 96-well black bottom plates at a density of 5000 cells/well in 90 μL of culture media and incubated at 37° overnight to allow cell adhesion and spreading. Compound dilution series were prepared in DMSO via a 3-fold serial dilution from 3 mM to 0.1 μM. The DMSO dilution series were then diluted 1:100 in phosphate buffered saline, and 10 μL of the resulted solution were added to the appropriate wells of the MX-1 cell plate. The final compound concentrations in the wells were 3, 1, 0.3, 0.1, 0.03, 0.01, 0.003, 0.001, 0.0003, and 0.0001 μM, or 1, 0.3, 0.1, 0.03, 0.01, 0.003, 0.001, 0.0003, 0.0001, and 0.00003 μM.
Luminescence readings from the Cell Titer Glo assay were normalized to the DMSO treated cells and analyzed using the GraphPad Prism software with sigmoidal curve fitting to obtain EC50s.
Background: ATP-based viability assays read luminescence as a measure of living cells.

On to `CCS(=O)(=O)Nc1ccc2c(c1)-c1cn(C)c(=O)cc1OCCCCc1cc(C(F)(F)F)ccc1O2` [Example A-29, N-[2-methyl-3-oxo-11-(trifluoromethyl)-2,3,6,7,8,9-hexahydrodibenzo[4,5:7,8][1,6]dioxacyclododecino[3,2-c]pyridin-17-yl]ethanesulfonamide], for which, on BRD4 (BDI-BDII_K57-K550), the Ki is 0.74 nM. In assay [1], the EC50 came to 3.97 nM.

Regarding `Cn1cc2c(cc1=O)OCCCCc1cc(OC(F)(F)F)ccc1Oc1ccc(NS(C)(=O)=O)cc1-2` [Example A-30, N-[2-methyl-3-oxo-11-(trifluoromethoxy)-2,3,6,7,8,9-hexahydrodibenzo[4,5:7,8][1,6]dioxacyclododecino[3,2-c]pyridin-17-yl]methanesulfonamide], on BRD4 (BDI-BDII_K57-K550), the Ki is 1.15 nM. The EC50 in assay [1] was determined as 8.77 nM.

Consider `COC(=O)c1cnc2c(c1)-c1cn(C)c(=O)cc1OCCCCc1cc(Cl)ccc1O2` [Example A-31, methyl 11-chloro-2-methyl-3-oxo-2,3,6,7,8,9-hexahydrobenzo[11,12][1,6]dioxacyclododecino[2,3-b:4,5-c′]dipyridine-17-carboxylate], for which the Ki at BRD4 (BDI-BDII_K57-K550) is 24.3 nM. For the same molecule, the EC50 in assay [1] is 302 nM.

On to `CCS(=O)(=O)c1cnc2c(c1)-c1cn(C)c(=O)cc1OCCCCc1cc(Cl)ccc1O2` [Example A-34, 11-chloro-17-(ethylsulfonyl)-2-methyl-6,7,8,9-tetrahydrobenzo[11,12][1,6]dioxacyclododecino[2,3-b:4,5-c′]dipyridin-3(2H)-one], for which the inhibitory constant (Ki) on BRD4 (BDI-BDII_K57-K550) was 6.92 nM. In addition, the EC50 in assay [1] was 33.3 nM.

As for `CCS(=O)(=O)Nc1cnc2c(c1)-c1cn(C)c(=O)cc1OCCCCc1cc(F)cc(F)c1O2` [Example A-35, N-(11,13-difluoro-2-methyl-3-oxo-2,3,6,7,8,9-hexahydrobenzo[11,12][1,6]dioxacyclododecino[2,3-b:4,5-c′]dipyridin-17-yl)ethanesulfonamide], the Ki at BRD4 (BDI-BDII_K57-K550) was 0.68 nM. Moreover, the EC50 in assay [1] was 4.18 nM.

Regarding `CCS(=O)(=O)Nc1ccc2c(c1)-c1cn(C)c(=O)cc1OCCCCc1cc(OC(F)(F)F)ccc1O2` [Example A-37, N-[2-methyl-3-oxo-11-(trifluoromethoxy)-2,3,6,7,8,9-hexahydrodibenzo[4,5:7,8][1,6]dioxacyclododecino[3,2-c]pyridin-17-yl]ethanesulfonamide], the Ki on BRD4 (BDI-BDII_K57-K550) is 0.87 nM. In addition, the EC50 in assay [1] turned out to be 6.12 nM.

In the case of `Cn1cc2c(cc1=O)OCCCCc1cc(Cl)ccc1Oc1ncc(C(=O)O)cc1-2` [Example A-38, 11-chloro-2-methyl-3-oxo-2,3,6,7,8,9-hexahydrobenzo[11,12][1,6]dioxacyclododecino[2,3-b:4,5-c′]dipyridine-17-carboxylic acid], the Ki at BRD4 (BDI-BDII_K57-K550) is 14.7 nM. For the same molecule, the EC50 in assay [1] is above 1000 nM.

As to `Cn1cc2c(cc1=O)OCCCCc1cc(Cl)ccc1Oc1ncc(CO)cc1-2` [Example A-39, 11-chloro-17-(hydroxymethyl)-2-methyl-6,7,8,9-tetrahydrobenzo[11,12][1,6]dioxacyclododecino[2,3-b:4,5-c′]dipyridin-3(2H)-one], the Ki on BRD4 (BDI-BDII_K57-K550) is 15.7 nM. For the same molecule, the EC50 in assay [1] is 173 nM.

On to `Cn1cc2c(cc1=O)OCCCCc1cc(Cl)ccc1Oc1ncc(CS(C)(=O)=O)cc1-2` [Example A-40, 11-chloro-2-methyl-17-((methylsulfonyl)methyl)-6,7,8,9-tetrahydrobenzo[11,12][1,6]dioxacyclododecino[2,3-b:4,5-c′]dipyridin-3(2H)-one], for which the Ki on BRD4 (BDI-BDII_K57-K550) is 6.09 nM. Besides, in assay [1], the EC50 stood at 23.7 nM.

Consider `CCS(=O)(=O)Nc1ccc2c(c1)-c1cn(C)c(=O)cc1OCCCCc1cc(Cl)cnc1O2` [Example A-41, N-(3-chloro-12-methyl-11-oxo-5,6,7,8,11,12-hexahydrobenzo[4,5][1,6]dioxacyclododecino[7,8-b:3,2-c′]dipyridin-15-yl)ethanesulfonamide], for which the inhibition constant Ki on BRD4 (BDI-BDII_K57-K550) was 8.05 nM. In addition, in assay [1], the EC50 is 26.8 nM.

On to `CCS(=O)(=O)c1ccc2c(c1)-c1cn(C)c(=O)cc1OCCCCc1ccncc1O2` [Example A-42, 17-(ethylsulfonyl)-2-methyl-6,7,8,9-tetrahydrobenzo[4,5][1,6]dioxacyclododecino[3,2-c:7,8-c′]dipyridin-3(2H)-one], for which, at BRD4 (BDI-BDII_K57-K550), the Ki is 0.86 nM. Further, in assay [1], the EC50 turned out to be 10.2 nM.

As for `Cn1cc2c(cc1=O)OCCCCc1cc(F)cc(F)c1Oc1ncc(CS(C)(=O)=O)cc1-2` [Example A-43, 11,13-difluoro-2-methyl-17-((methylsulfonyl)methyl)-6,7,8,9-tetrahydrobenzo[11,12][1,6]dioxacyclododecino[2,3-b:4,5-c′]dipyridin-3(2H)-one], the inhibitory constant (Ki) on BRD4 (BDI-BDII_K57-K550) was 3.82 nM. In addition, in assay [1], the EC50 came out at 10.7 nM.

As to `Cn1cc2c(cc1=O)OCCCCc1ccc(Cl)cc1Oc1ccc(NS(C)(=O)=O)cc1-2` [Example A-44, N-(12-chloro-2-methyl-3-oxo-2,3,6,7,8,9-hexahydrodibenzo[4,5:7,8][1,6]dioxacyclododecino[3,2-c]pyridin-17-yl)methanesulfonamide], the Ki on BRD4 (BDI-BDII_K57-K550) is 1.22 nM. Also, the EC50 in assay [1] worked out at 4.05 nM.

Consider `CCS(=O)(=O)Nc1ccc2c(c1)-c1cn(C)c(=O)cc1OCCCCc1cc(C#N)ccc1O2` [Example A-45, N-(11-cyano-2-methyl-3-oxo-2,3,6,7,8,9-hexahydrodibenzo[4,5:7,8][1,6]dioxacyclododecino[3,2-c]pyridin-17-yl)ethanesulfonamide], for which the Ki at BRD4 (BDI-BDII_K57-K550) is 1.84 nM. Also, the EC50 in assay [1] turned out to be 3.82 nM.

As for `CCS(=O)(=O)Nc1ccc2c(c1)-c1cn(C)c(=O)cc1OCCCCc1cccnc1O2` [Example A-46, N-(12-methyl-11-oxo-5,6,7,8,11,12-hexahydrobenzo[4,5][1,6]dioxacyclododecino[7,8-b:3,2-c′]dipyridin-15-yl)ethanesulfonamide], the Ki on BRD4 (BDI-BDII_K57-K550) was 32.1 nM. The EC50 in assay [1] is 50.7 nM.

As to `Cn1cc2c(cc1=O)OCCCCc1cc(C#N)ccc1Oc1ccc(NS(C)(=O)=O)cc1-2` [Example A-47, N-(11-cyano-2-methyl-3-oxo-2,3,6,7,8,9-hexahydrodibenzo[4,5:7,8][1,6]dioxacyclododecino[3,2-c]pyridin-17-yl)methanesulfonamide], the Ki on BRD4 (BDI-BDII_K57-K550) is 3.68 nM. The EC50 in assay [1] stood at 24.4 nM.

As for `CCS(=O)(=O)Nc1ccc2c(c1)-c1cn(C)c(=O)cc1OCCCCc1cc(F)c(F)cc1O2` [Example A-48, N-(11,12-difluoro-2-methyl-3-oxo-2,3,6,7,8,9-hexahydrodibenzo[4,5:7,8][1,6]dioxacyclododecino[3,2-c]pyridin-17-yl)ethanesulfonamide], on BRD4 (BDI-BDII_K57-K550), the Ki was 1.32 nM. Further, in assay [1], the EC50 turned out to be 4.31 nM.

Regarding `CCS(=O)(=O)Nc1ccc2c(c1)-c1cn(C)c(=O)cc1OCCCCc1cc(F)ccc1O2` [Example A-49, N-(11-fluoro-2-methyl-3-oxo-2,3,6,7,8,9-hexahydrodibenzo[4,5:7,8][1,6]dioxacyclododecino[3,2-c]pyridin-17-yl)ethanesulfonamide], the inhibition constant Ki on BRD4 (BDI-BDII_K57-K550) was 1.57 nM. The EC50 in assay [1] was found to be 3.64 nM.

As to `Cn1cc2c(cc1=O)OCCCCc1cc(F)ccc1Oc1ccc(NS(C)(=O)=O)cc1-2` [Example A-50, N-(11-fluoro-2-methyl-3-oxo-2,3,6,7,8,9-hexahydrodibenzo[4,5:7,8][1,6]dioxacyclododecino[3,2-c]pyridin-17-yl)methanesulfonamide], the Ki on BRD4 (BDI-BDII_K57-K550) was 2.24 nM. Moreover, the EC50 in assay [1] stood at 3.72 nM.

Turning to `Cn1cc2c(cc1=O)OCCCCc1cc(C(F)(F)F)ccc1Oc1ccc(NS(C)(=O)=O)cc1-2` [Example A-51, N-(2-methyl-3-oxo-11-(trifluoromethyl)-2,3,6,7,8,9-hexahydrodibenzo[4,5:7,8][1,6]dioxacyclododecino[3,2-c]pyridin-17-yl)methanesulfonamide], at BRD4 (BDI-BDII_K57-K550), the Ki was 1.72 nM. Moreover, the EC50 in assay [1] was found to be 14 nM.

On to `CCS(=O)(=O)Nc1ccc2c(c1)-c1cn(C)c(=O)cc1OCCCCc1ccc(Cl)cc1O2` [Example A-52, N-(12-chloro-2-methyl-3-oxo-2,3,6,7,8,9-hexahydrodibenzo[4,5:7,8][1,6]dioxacyclododecino[3,2-c]pyridin-17-yl)ethanesulfonamide], for which the inhibitory constant (Ki) at BRD4 (BDI-BDII_K57-K550) is 0.75 nM. Besides, the EC50 in assay [1] is 5.76 nM.

Turning to `CCS(=O)(=O)c1ccc2c(c1)-c1nn(C)c(=O)cc1OCCCCc1cc(Cl)ccc1O2` [Example A-53, 11-chloro-17-(ethylsulfonyl)-2-methyl-6,7,8,9-tetrahydrodibenzo[4,5:7,8][1,6]dioxacyclododecino[3,2-c]pyridazin-3(2H)-one], the Ki on BRD4 (BDI-BDII_K57-K550) is 6.32 nM. In assay [1], the EC50 worked out at 47.5 nM.

`CCS(=O)(=O)c1ccc2c(c1)-c1nn(C)c(=O)cc1OCCCCc1cc(C#N)ccc1O2` [Example A-54, 17-(ethylsulfonyl)-2-methyl-3-oxo-2,3,6,7,8,9-hexahydrodibenzo[4,5:7,8][1,6]dioxacyclododecino[3,2-c]pyridazine-11-carbonitrile]: the Ki at BRD4 (BDI-BDII_K57-K550) is 19.7 nM. The EC50 in assay [1] turned out to be 162 nM.
